Data reported in article PMC7955893 (Journal of medicinal chemistry, 2019).

Tests used:
[1] = test system: U2OS cells; assay: CellTiter-Glo luminescent cell viability; type: cell-based, human; settings: 48 h, 100 μM dose
[2] = test system: MNAM levels in U2OS cells; assay: MNAM measurement in U2OS cells by LC-MS/MS; type: cell-based, human; settings: 24 h incubation
[3] = test system: Caco-2; assay: A-B permeability testing; settings: Caco-2, pH 6.5/7.4
[4] = target: T1, NNMT (Homo sapiens, UniProt P40261); assay: Cellular thermal shift assay; type: binding; settings: K562 cell lysate; various concentrations; heated at 57 °C
T1 sequence (P40261 1-264): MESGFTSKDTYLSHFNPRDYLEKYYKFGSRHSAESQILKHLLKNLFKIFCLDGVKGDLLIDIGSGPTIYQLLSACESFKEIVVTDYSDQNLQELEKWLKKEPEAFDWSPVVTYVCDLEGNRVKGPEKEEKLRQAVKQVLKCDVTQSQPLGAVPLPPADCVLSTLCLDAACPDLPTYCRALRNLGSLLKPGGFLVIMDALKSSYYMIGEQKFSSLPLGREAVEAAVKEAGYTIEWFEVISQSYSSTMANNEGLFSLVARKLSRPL

[5] = target: T1, NNMT; assay: Fluorescence-based continuous NNMT inhibition assay; type: biochemical; settings: for NNMT inhibition (in words): qualitative SAR statement

Q: How did the “cytotoxicity to U2OS cells (in words)” value [1] turn out when `NC(=O)c1cccc(C#C[C@@H](CC[C@H](N)C(=O)O)C[C@H]2O[C@@H](n3cnc4c(N)ncnc43)[C@H](O)[C@@H]2O)c1` [NS1, (2S,5S)-2-amino-5-(((2R,3S,4R,5R)-5-(6-amino-9H-purin-9-yl)-3,4-dihydroxytetrahydrofuran-2-yl)methyl)-7-(3-carbamoylphenyl)hept-6-ynoic acid] was run?
A: The value was “None of the compounds tested (NS1, 21, 23, 24, 25) were toxic”.

Q: What about the “ability to decrease MNAM levels in U2OS cells (in words)” value (shortened to “ability to decrease MNAM levels”) [2] of the same compound?
A: The value was “the effects were modest”.

Q: And the “A-B permeability (in words)” value [3]?
A: Its value is “limited permeability”.

Q: What about the “isothermal dose response CETSA, stabilization of NNMT (in words)” value [4] of the same compound?
A: The value was “dose-dependent manner”.

Q: With `Nc1ncnc2c1ncn2[C@@H]1O[C@H](CCCC[C@H](N)C(=O)O)[C@@H](O)[C@H]1O` [compound 11, (S)-2-amino-6-((2R,3S,4R,5R)-5-(6-amino-9H-purin-9-yl)-3,4-dihydroxytetrahydrofuran-2-yl)hexanoic acid] as the compound, how does the “NNMT inhibition (in words)” value [5] read?
A: Its value is “poor NNMT inhibitor”.

Q: Which “NNMT inhibition (in words)” value [5] does the source give for `C#C[C@@H](CC[C@H](N)C(=O)O)C[C@H]1O[C@@H](n2cnc3c(N)ncnc32)[C@H](O)[C@@H]1O` [compound 12, (2S,5S)-2-amino-5-(((2R,3S,4R,5R)-5-(6-amino-9H-purin-9-yl)-3,4-dihydroxytetrahydrofuran-2-yl)methyl)hept-6-ynoic acid] here?
A: The value was “equally poor NNMT inhibitors”.

Q: With `Nc1ncnc2c1ncn2[C@@H]1O[C@H](C[C@@H](C#Cc2ccccc2)CC[C@H](N)C(=O)O)[C@@H](O)[C@H]1O` [compound 13, (2S,5S)-2-amino-5-(((2R,3S,4R,5R)-5-(6-amino-9H-purin-9-yl)-3,4-dihydroxytetrahydrofuran-2-yl)methyl)-7-phenylhept-6-ynoic acid] as the compound, how does the “NNMT inhibition (in words)” value [5] read?
A: Its value is “equally poor NNMT inhibitors”.

Q: For `NC(=O)c1cccc(CC[C@@H](CC[C@H](N)C(=O)O)C[C@H]2O[C@@H](n3cnc4c(N)ncnc43)[C@H](O)[C@@H]2O)c1` [compound 15, (2S,5S)-2-amino-5-(((2R,3S,4R,5R)-5-(6-amino-9H-purin-9-yl)-3,4-dihydroxytetrahydrofuran-2-yl)methyl)-7-(3-carbamoylphenyl)heptanoic acid], which “fold more potent than MS2756 in terms of Ki” value ([5]; relative to MS2756) is on record?
A: Its value is “approximately 200 fold”.

Q: What about the “fold weaker inhibitor than NS1 in terms of Ki” value ([5]; relative to NS1) of the same compound?
A: The value was roughly 10 fold.

Q: With `NC(=O)c1cccc(CC[C@H](CC[C@H](N)C(=O)O)C[C@H]2O[C@@H](n3cnc4c(N)ncnc43)[C@H](O)[C@@H]2O)c1` [compound 16, (2S,5R)-2-amino-5-(((2R,3S,4R,5R)-5-(6-amino-9H-purin-9-yl)-3,4-dihydroxytetrahydrofuran-2-yl)methyl)-7-(3-carbamoylphenyl)heptanoic acid] as the compound, how does the “fold difference in Ki between NS1-alkane and its C6’ epimer” value ([5]; relative to NS1-alkane (15)) read?
A: Its value is ~ 20 fold.

Q: Which “fold weaker inhibitor than NS1 in terms of Ki” value ([5]; relative to NS1) does the source give for `NC(=O)c1cccc(C#CCC[C@H]2O[C@@H](n3cnc4c(N)ncnc43)[C@H](O)[C@@H]2O)c1` [compound 17, 3-(4-((2R,3S,4R,5R)-5-(6-amino-9H-purin-9-yl)-3,4-dihydroxytetrahydrofuran-2-yl)but-1-yn-1-yl)benzamide] here?
A: Its value is ~ 500 fold.

Q: With `NC(=O)c1cccc(C#C[C@@H]2C[C@H]2[C@H]2O[C@@H](n3cnc4c(N)ncnc43)[C@H](O)[C@@H]2O)c1` [compound 18, 3-(((1R,2R)-2-((2R,3S,4R,5R)-5-(6-amino-9H-purin-9-yl)-3,4-dihydroxytetrahydrofuran-2-yl)cyclopropyl)ethynyl)benzamide] as the compound, how does the “NNMT inhibition (in words)” value [5] read?
A: The value was “proved detrimental”.

Q: Which “NNMT inhibition (in words)” value [5] does the source give for `CO[C@@H]1O[C@H](C[C@@H](C#Cc2cccc(C(N)=O)c2)CC[C@H](N)C(=O)O)[C@@H](O)[C@H]1O` [compound 19, (2S,5S)-2-amino-7-(3-carbamoylphenyl)-5-(((2R,3S,4R,5R)-3,4-dihydroxy-5-methoxytetrahydrofuran-2-yl)methyl)hept-6-ynoic acid] here?
A: Its value is “completely abrogated NNMT inhibition”.

Q: With `NC(=O)c1cccc(C#C[C@@H](CCCC(=O)O)C[C@H]2O[C@@H](n3cnc4c(N)ncnc43)[C@H](O)[C@@H]2O)c1` [compound 20, (S)-5-(((2R,3S,4R,5R)-5-(6-amino-9H-purin-9-yl)-3,4-dihydroxytetrahydrofuran-2-yl)methyl)-7-(3-carbamoylphenyl)hept-6-ynoic acid] as the compound, how does the “NNMT inhibition (in words)” value [5] read?
A: Its value is “poor NNMT inhibitor”.

Q: What does the source list for `NCCC[C@H](C#Cc1cccc(C(N)=O)c1)C[C@H]1O[C@@H](n2cnc3c(N)ncnc32)[C@H](O)[C@@H]1O` [compound 21, 3-((S)-6-amino-3-(((2R,3S,4R,5R)-5-(6-amino-9H-purin-9-yl)-3,4-dihydroxytetrahydrofuran-2-yl)methyl)hex-1-yn-1-yl)benzamide]?
A: cytotoxicity to U2OS cells (in words) [1]: None of the compounds tested (NS1, 21, 23, 24, 25) were toxic; ability to decrease MNAM levels in U2OS cells (in words) [2]: the effects were modest

Q: How did the “cytotoxicity to U2OS cells (in words)” value [1] turn out when `COC(=O)[C@@H](N)CC[C@H](C#Cc1cccc(C(N)=O)c1)C[C@H]1O[C@@H](n2cnc3c(N)ncnc32)[C@H](O)[C@@H]1O` [compound 23, Methyl (2S,5S)-2-amino-5-(((2R,3S,4R,5R)-5-(6-amino-9H-purin-9-yl)-3,4-dihydroxytetrahydrofuran-2-yl)methyl)-7-(3-carbamoylphenyl)hept-6-ynoate] was run?
A: Its value is “None of the compounds tested (NS1, 21, 23, 24, 25) were toxic”.

Q: What about the “ability to decrease MNAM levels” value [2] of the same compound?
A: The value was “the effects were modest”.

Q: Which results are given for `NC(=O)c1cccc(C#C[C@@H](CC[C@H](N)C(N)=O)C[C@H]2O[C@@H](n3cnc4c(N)ncnc43)[C@H](O)[C@@H]2O)c1` [compound 24, 3-((3S,6S)-6,7-diamino-3-(((2R,3S,4R,5R)-5-(6-amino-9H-purin-9-yl)-3,4-dihydroxytetrahydrofuran-2-yl)methyl)-7-oxohept-1-yn-1-yl)benzamide]?
A: cytotoxicity to U2OS cells (in words) [1]: None of the compounds tested (NS1, 21, 23, 24, 25) were toxic; ability to decrease MNAM levels in U2OS cells (in words) [2]: the effects were modest

Q: For `NC(=O)NCC[C@H](C#Cc1cccc(C(N)=O)c1)C[C@H]1O[C@@H](n2cnc3c(N)ncnc32)[C@H](O)[C@@H]1O` [compound 25, 3-((S)-3-(((2R,3S,4R,5R)-5-(6-amino-9H-purin-9-yl)-3,4-dihydroxytetrahydrofuran-2-yl)methyl)-5-ureidopent-1-yn-1-yl)benzamide], which “cytotoxicity to U2OS cells (in words)” value [1] is on record?
A: Its value is “None of the compounds tested (NS1, 21, 23, 24, 25) were toxic”.

Q: And the “ability to decrease MNAM levels” value [2]?
A: The value was “the effects were modest”.

Q: And the “isothermal dose response CETSA, stabilization of NNMT (in words)” value [4]?
A: The value was “dose-dependent manner”.

Q: With `NC(=O)c1cccc(C#C[C@@H](CCC[C@H](N)C(=O)O)C[C@H]2O[C@@H](n3cnc4c(N)ncnc43)[C@H](O)[C@@H]2O)c1` [compound 26, (2S,6S)-2-amino-6-(((2R,3S,4R,5R)-5-(6-amino-9H-purin-9-yl)-3,4-dihydroxytetrahydrofuran-2-yl)methyl)-8-(3-carbamoylphenyl)oct-7-ynoic acid] as the compound, how does the “fold increase in inhibitory activity in terms of Ki compared to NS1” value ([5]; relative to NS1) read?
A: The value was ~ 2 fold.

Q: How did the “NNMT inhibition (in words)” value [5] turn out when `NC(=O)c1ccc(C#C[C@@H](CC[C@H](N)C(=O)O)C[C@H]2O[C@@H](n3cnc4c(N)ncnc43)[C@H](O)[C@@H]2O)cc1` [compound 27, (2S,5S)-2-amino-5-(((2R,3S,4R,5R)-5-(6-amino-9H-purin-9-yl)-3,4-dihydroxytetrahydrofuran-2-yl)methyl)-7-(4-carbamoylphenyl)hept-6-ynoic acid] was run?
A: Its value is “much less potent than NS1”.

Q: For `NC(=O)c1ccccc1C#C[C@@H](CC[C@H](N)C(=O)O)C[C@H]1O[C@@H](n2cnc3c(N)ncnc32)[C@H](O)[C@@H]1O` [compound 28, (2S,5S)-2-amino-5-(((2R,3S,4R,5R)-5-(6-amino-9H-purin-9-yl)-3,4-dihydroxytetrahydrofuran-2-yl)methyl)-7-(2-carbamoylphenyl)hept-6-ynoic acid], which “NNMT inhibition (in words)” value [5] is on record?
A: The value was “much less potent than NS1”.

Q: How did the “NNMT inhibition (in words)” value [5] turn out when `Nc1ncnc2c1ncn2[C@@H]1O[C@H](C[C@@H](C#Cc2cccc(S(N)(=O)=O)c2)CC[C@H](N)C(=O)O)[C@@H](O)[C@H]1O` [compound 29, (2S,5S)-2-amino-5-(((2R,3S,4R,5R)-5-(6-amino-9H-purin-9-yl)-3,4-dihydroxytetrahydrofuran-2-yl)methyl)-7-(3-sulfamoylphenyl)hept-6-ynoic acid] was run?
A: Its value is “much less potent than NS1”.

Q: `Nc1ncnc2c1ncn2[C@@H]1O[C@H](C[C@@H](C#Cc2ccc3c(c2)C(=O)NCC3)CC[C@H](N)C(=O)O)[C@@H](O)[C@H]1O` [compound 34, (2S,5S)-2-amino-5-(((2R,3S,4R,5R)-5-(6-amino-9H-purin-9-yl)-3,4-dihydroxytetrahydrofuran-2-yl)methyl)-7-(1-oxo-1,2,3,4-tetrahydroisoquinolin-7-yl)hept-6-ynoic acid] was tested. Which “NNMT inhibition (in words)” value [5] did it give?
A: Its value is “moderate NNMT inhibitors”.

Q: How did the “NNMT inhibition (in words)” value [5] turn out when `Nc1ncnc2c1ncn2[C@@H]1O[C@H](C[C@@H](C#Cc2ccc3c(c2)C(=O)NC3)CC[C@H](N)C(=O)O)[C@@H](O)[C@H]1O` [compound 35, (2S,5S)-2-amino-5-(((2R,3S,4R,5R)-5-(6-amino-9H-purin-9-yl)-3,4-dihydroxytetrahydrofuran-2-yl)methyl)-7-(3-oxoisoindolin-5-yl)hept-6-ynoic acid] was run?
A: The value was “moderate NNMT inhibitors”.
